Experimental data reported in PubChem BioAssay (NCI).
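Method: 48-hour compound exposure of cells in 96-well plates, five concentrations, linear interpolation of endpoints. TGI is the concentration that stops growth completely.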

Assays:
Assay in all cases: NCI anticancer screen, dose series, 48 h
[1] = test system: BT-549 breast
[2] = test system: HCC-2998 colon
[3] = test system: SR leukemia
[4] = test system: CCRF-CEM leukemia
[5] = test system: UACC-257 melanoma
[6] = test system: 786-0 renal
[7] = test system: SNB-75 CNS
[8] = test system: NCI-H460 lung
[9] = test system: HS 578T breast
[10] = test system: COLO 205 colon
[11] = test system: MDA-MB-435
[12] = test system: SK-MEL-2 melanoma
[13] = test system: MDA-MB-231 breast
[14] = test system: ACHN renal
[15] = test system: UACC-62 melanoma
[16] = test system: SK-MEL-28 melanoma
[17] = test system: HCT-116 colon
[18] = test system: SW-620 colon
[19] = test system: MCF7 breast
[20] = test system: NCI/ADR-RES ovarian
[21] = test system: SF-268 CNS
[22] = test system: HOP-92 NSCLC
[23] = test system: OVCAR-5 ovarian
[24] = test system: PC-3 prostate
[25] = test system: UO-31 renal
[26] = test system: NCI-H23 lung
[27] = test system: SN12C renal
[28] = test system: T-47D breast
[29] = test system: DU-145 prostate
[30] = test system: HOP-62 NSCLC
[31] = test system: SF-539 CNS
[32] = test system: EKVX NSCLC
[33] = test system: MDA-N
[34] = test system: SK-OV-3 ovarian
[35] = test system: LOX IMVI melanoma
[36] = test system: A498 renal
[37] = test system: MALME-3M melanoma
[38] = test system: OVCAR-8 ovarian
[39] = test system: M14 melanoma
[40] = test system: K-562 leukemia
[41] = test system: HL-60(TB) leukemia
[42] = test system: CAKI-1 renal
[43] = test system: SNB-19 CNS
[44] = test system: U251 CNS
[45] = test system: A549 NSCLC
[46] = test system: TK-10 renal
[47] = test system: NCI-H522 lung
[48] = test system: HCT-15 colon
[49] = test system: KM12 colon
[50] = test system: IGROV1 ovarian
[51] = test system: OVCAR-3 ovarian
[52] = test system: NCI-H226 lung
[53] = test system: HT29 colon
[54] = test system: SF-295 CNS
[55] = test system: OVCAR-4 ovarian
[56] = test system: MOLT-4 leukemia
[57] = test system: SK-MEL-5 melanoma
[58] = test system: RPMI-8226 leukemia

CCCNc1[nH]c(C(=O)c2ccccc2)c(N)c1C(=S)Nc1ccccc1
TGI [1]: > 100 µM | TGI [2]: > 100 µM | TGI [3]: > 100 µM | TGI [4]: > 100 µM | TGI [5]: > 100 µM | TGI [6]: > 100 µM | TGI [7]: > 100 µM | TGI [8]: > 100 µM | TGI [9]: > 100 µM | TGI [10]: > 100 µM | TGI [11]: > 100 µM | TGI [12]: > 100 µM | TGI [13]: > 100 µM | TGI [14]: > 100 µM | TGI [15]: > 100 µM | TGI [16]: > 100 µM | TGI [17]: > 100 µM | TGI [18]: > 100 µM | TGI [19]: > 100 µM | TGI [20]: > 100 µM | TGI [21]: > 100 µM | TGI [22]: > 100 µM | TGI [23]: > 100 µM | TGI [24]: > 100 µM | TGI [25]: > 100 µM | TGI [26]: > 100 µM | TGI [27]: > 100 µM | TGI [28]: > 100 µM | TGI [29]: > 100 µM | TGI [30]: > 100 µM | TGI [31]: > 100 µM | TGI [32]: > 100 µM | TGI [33]: > 100 µM | TGI [34]: > 100 µM | TGI [35]: > 100 µM | TGI [36]: > 100 µM | TGI [37]: > 100 µM | TGI [38]: > 100 µM | TGI [39]: > 100 µM | TGI [40]: > 100 µM | TGI [41]: > 100 µM | TGI [42]: > 100 µM | TGI [43]: > 100 µM | TGI [44]: > 100 µM | TGI [45]: > 100 µM | TGI [46]: > 100 µM | TGI [47]: > 100 µM | TGI [48]: > 100 µM | TGI [49]: > 100 µM | TGI [50]: > 100 µM | TGI [51]: > 100 µM | TGI [52]: > 100 µM | TGI [53]: > 100 µM | TGI [54]: > 100 µM | TGI [55]: > 100 µM | TGI [56]: > 100 µM | TGI [57]: > 100 µM

COC(=O)C#Cc1cccc(OC)c1OC
TGI [1]: > 100 µM | TGI [2]: 48.2 µM | TGI [3]: 44.8 µM | TGI [4]: 67.9 µM | TGI [5]: > 100 µM | TGI [6]: > 100 µM | TGI [8]: > 100 µM | TGI [9]: > 100 µM | TGI [10]: 65.7 µM | TGI [11]: > 100 µM | TGI [13]: > 100 µM | TGI [14]: > 100 µM | TGI [15]: > 100 µM | TGI [16]: > 100 µM | TGI [17]: > 100 µM | TGI [18]: > 100 µM | TGI [19]: 55.6 µM | TGI [20]: 99 µM | TGI [22]: 66.1 µM | TGI [23]: 51.3 µM | TGI [24]: > 100 µM | TGI [25]: 37.9 µM | TGI [26]: > 100 µM | TGI [27]: > 100 µM | TGI [28]: > 100 µM | TGI [58]: > 100 µM | TGI [29]: > 100 µM | TGI [30]: > 100 µM | TGI [31]: 46.4 µM | TGI [32]: 54.4 µM | TGI [33]: > 100 µM | TGI [34]: > 100 µM | TGI [35]: > 100 µM | TGI [36]: > 100 µM | TGI [37]: > 100 µM | TGI [38]: > 100 µM | TGI [39]: > 100 µM | TGI [40]: 55.1 µM | TGI [41]: > 100 µM | TGI [42]: 68.3 µM | TGI [43]: > 100 µM | TGI [44]: > 100 µM | TGI [45]: > 100 µM | TGI [46]: > 100 µM | TGI [48]: > 100 µM | TGI [49]: > 100 µM | TGI [51]: > 100 µM | TGI [52]: > 100 µM | TGI [53]: 79.2 µM | TGI [54]: > 100 µM | TGI [55]: 36.2 µM | TGI [56]: 35.4 µM | TGI [57]: > 100 µM

COC(=O)CCc1ccc2c(c1)[C@H](C(=O)OC)[C@@H](c1ccc(O)cc1)O2
TGI [1]: > 100 µM | TGI [2]: > 100 µM | TGI [3]: > 100 µM | TGI [4]: > 100 µM | TGI [5]: > 100 µM | TGI [8]: > 100 µM | TGI [9]: > 100 µM | TGI [10]: > 100 µM | TGI [11]: > 100 µM | TGI [12]: > 100 µM | TGI [13]: > 100 µM | TGI [14]: > 100 µM | TGI [15]: > 100 µM | TGI [16]: > 100 µM | TGI [17]: 47.1 µM | TGI [18]: > 100 µM | TGI [19]: > 100 µM | TGI [20]: > 100 µM | TGI [21]: > 100 µM | TGI [22]: > 100 µM | TGI [23]: > 100 µM | TGI [24]: > 100 µM | TGI [25]: > 100 µM | TGI [26]: > 100 µM | TGI [27]: > 100 µM | TGI [28]: > 100 µM | TGI [58]: > 100 µM | TGI [29]: > 100 µM | TGI [30]: > 100 µM | TGI [31]: 65.9 µM | TGI [32]: > 100 µM | TGI [33]: > 100 µM | TGI [34]: > 100 µM | TGI [35]: > 100 µM | TGI [36]: > 100 µM | TGI [37]: > 100 µM | TGI [38]: > 100 µM | TGI [39]: > 100 µM | TGI [40]: > 100 µM | TGI [41]: > 100 µM | TGI [42]: > 100 µM | TGI [43]: > 100 µM | TGI [44]: > 100 µM | TGI [45]: > 100 µM | TGI [46]: > 100 µM | TGI [47]: > 100 µM | TGI [48]: > 100 µM | TGI [49]: > 100 µM | TGI [50]: > 100 µM | TGI [51]: > 100 µM | TGI [52]: 67.1 µM | TGI [53]: > 100 µM | TGI [54]: > 100 µM | TGI [55]: > 100 µM | TGI [56]: > 100 µM | TGI [57]: > 100 µM
